Experimental findings from ChEMBL document CHEMBL1131315, “Synthesis and anticonvulsant activity of 2(3H)-benzoxazolone and 2(3H)-benzothiazolone derivatives” (J Med Chem, 1998) are described below.

Data set [1] is described as follows: (§1) The compound was tested for the toxic dose on oral administration. It is filed as ADME. The note with it: rat.
For data set [2], the system named is Mus musculus. As to the kind of experiment: The anticonvulsant activity in subcutaneous pentylenetetrazole seizure test (sc Met) for 4 hr in mice; no activity or no toxicity at 300 mg/kg. The format is functional, organism-based. On the set-up: dose 300 mg/kg.
Data set [3] deals with Mus musculus. As to the kind of experiment: The compound was tested for anticonvulsant activity in Maximal electroshock seizure test (MES) for 4 hr in mice(ip); active at 300 mg/kg. The format is functional, organism-based. On the set-up: dose 300 mg/kg.
The test system of data set [4] is Rattus norvegicus. As to the kind of experiment: The compound was tested peroral dose of 40 mg/kg for 0.5 hours for rotarod toxicity; 0/4. The note with it: route oral. The format is functional.
The test system of data set [5] is Rattus norvegicus. As to the kind of experiment: The compound was tested peroral dose of 40 mg/kg for 0.25 hours for rotarod toxicity; 0/4. The format is functional. The note with it: route oral.
Data set [6] deals with Rattus norvegicus. As to the kind of experiment: The compound was tested peroral dose of 40 mg/kg for 4 hours for maximal electroshock test on rats; MES= 0/4. The format is functional. The note with it: route oral.
In data set [7] the test system is Mus musculus. As to the kind of experiment: Anticonvulsant activity in subcutaneous pentylenetetrazole seizure test for 30 min in mice; No activity/toxicity at 300 mg/kg. The format is functional, organism-based. The arrangement: dose 300 mg/kg.
The species entered for data set [8] is Rattus norvegicus. As to the kind of experiment: (§2) Protective index value is the ratio between ED50 and TD50. It is filed as functional.
The test system of data set [9] is Rattus norvegicus. As to the kind of experiment: The compound was tested peroral dose of 40 mg/kg for 2 hours for maximal electroshock test on rats; MES= 1/4. It is filed as functional. The note with it: route oral.
Data set [10] in a line: The compound was tested for time of peak effect (TPE) in hours for its toxicity in mice on ip administration. The note with it: mouse, in vivo. It is filed as organism-based.
Data set [11] deals with Mus musculus. As to the kind of experiment: Time of peak effect in mice following i.p. administration. The format is functional.
Data set [12] relates to Rattus norvegicus. As to the kind of experiment: The compound was tested peroral dose of 40 mg/kg for 2 hours for rotarod toxicity; 0/4. It is filed as functional. The note with it: route oral.
Data set [13] concerns Rattus norvegicus. As to the kind of experiment: The compound was tested for the effective oral dose to inhibit 50% of the anticonvulsant in rats. It is filed as functional.
Data set [14] relates to Mus musculus. As to the kind of experiment: The compound was tested to inhibit 50% of induced maximal electroshock seizure in mice on ip administration. It is filed as functional.
Data set [15] deals with Rattus norvegicus. As to the kind of experiment: The compound was tested peroral dose of 40 mg/kg for 1 hour for rotarod toxicity; 0/4. It is filed as functional. The note with it: route oral.
Data set [16] in a line: The compound was tested for neurologic toxicity (rotarod) test for 30 min in mice; active at 300 mg/kg. The format is organism-based. The note with it: mouse, in vivo, 0.5 h. The arrangement: dose 300 mg/kg.
The target in data set [17] is Sigma non-opioid intracellular receptor 1 (Homo sapiens) (UniProt Q99720). As to the kind of experiment: Ratio between the Ki(nM)values of sigma-2 and sigma-1. It is filed as functional.
Sequence of Sigma non-opioid intracellular receptor 1 (Homo sapiens) (Q99720 whole entry): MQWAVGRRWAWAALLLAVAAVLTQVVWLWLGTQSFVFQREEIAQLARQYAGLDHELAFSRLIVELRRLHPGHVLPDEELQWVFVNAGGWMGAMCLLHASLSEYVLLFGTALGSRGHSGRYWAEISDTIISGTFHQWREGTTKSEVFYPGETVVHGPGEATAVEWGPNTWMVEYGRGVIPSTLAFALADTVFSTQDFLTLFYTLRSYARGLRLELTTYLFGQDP
The test system of data set [18] is Rattus norvegicus. As to the kind of experiment: The compound was tested peroral dose of 40 mg/kg for 1 hour for maximal electroshock test on rats; MES= 1/4. It is filed as functional. The note with it: route oral.
Data set [19] in a line: The compound was tested for neurologic toxicity (rotarod) test for 4 hours in mice; no activity or no toxicity at 300 mg/kg. The format is organism-based. On the set-up: dose 300 mg/kg. The note with it: mouse, in vivo.
Data set [20] in a line: The compound was determined for the dose (mg/kg) by rotarod test at the time of peak neurotoxic effect in mice on ip administration. It is filed as ADME, organism-based. The note with it: mouse, in vivo.
The test system of data set [21] is Rattus norvegicus. As to the kind of experiment: The compound was tested peroral dose of 40 mg/kg for 4 hours for rotarod toxicity; 0/4. The note with it: route oral. It is filed as functional.
Data set [22] relates to Rattus norvegicus. As to the kind of experiment: The compound was tested peroral dose of 40 mg/kg for 0.5 hours for maximal electroshock test on rats; MES= 3/4. The format is functional. The note with it: route oral.
In another data set the target is Sigma 2 receptor. As to the kind of experiment: Affinity on sigma 2 receptor using [3H]- DTG as radioligand.
Data set [23] has as its system Mus musculus. As to the kind of experiment: Inhibition of s.c. pentylenetetrazole induced seizure in mice following i.p. administration. It is filed as functional.
For data set [24], the system named is Mus musculus. As to the kind of experiment: The compound was tested for anticonvulsant activity in Maximal electroshock seizure test for 30 min in mice(ip); active at 30 mg/kg. The arrangement: dose 30 mg/kg. It is filed as functional, organism-based.
The test system of data set [25] is Rattus norvegicus. As to the kind of experiment: The compound was tested peroral dose of 40 mg/kg for 0.25 hours for maximal electroshock test on rats; MES= 3/4. The format is functional. The note with it: route oral.
Data set [26] has as its system Mus musculus. As to the kind of experiment: The compound was tested for anticonvulsant activity in subcutaneous pentylenetetrazole seizure test (sc Met) for 4 hr in mice; active at 300 mg/kg. The format is functional, organism-based. On the set-up: dose 300 mg/kg.
In data set [27] the test system is Rattus norvegicus. As to the kind of experiment: The compound was tested peroral dose of 25 mg/kg for 0.5 hours for rotarod toxicity; 0/4. It is filed as functional. The note with it: route oral.
Data set [28] is described as follows: The compound was tested for neurologic toxicity (rotarod) test for 4 hours in mice; active at 300 mg/kg. The format is organism-based. The note with it: mouse, in vivo. On the set-up: dose 300 mg/kg.
Data set [29] relates to Rattus norvegicus. As to the kind of experiment: The compound was tested per os dose of 25 mg/kg for 1 hour for maximal electroshock test on rats; MES= 3/4. The format is functional.
In data set [30] the test system is Mus musculus. As to the kind of experiment: The compound was tested for anticonvulsant activity in Maximal electroshock seizure test (MES) for 4 hr in mice(ip); active at 100 mg/kg. It is filed as functional, organism-based. The arrangement: dose 100 mg/kg.
Data set [31] concerns Rattus norvegicus. As to the kind of experiment: The compound was tested peroral dose of 25 mg/kg for 2 hours for rotarod toxicity; 0/4. The note with it: route oral. It is filed as functional.
For data set [32], the system named is Mus musculus. As to the kind of experiment: Anticonvulsant activity in Maximal electroshock seizure test at 100 mg/kg i.p. in mice. It is filed as functional, organism-based. The arrangement: dose 100 mg/kg.
The test system of data set [33] is Rattus norvegicus. As to the kind of experiment: The compound was tested peroral dose of 25 mg/kg for 4 hours for rotarod toxicity; 0/4. It is filed as functional. The note with it: route oral.
The test system of data set [34] is Mus musculus. As to the kind of experiment: The compound was tested for anticonvulsant activity in subcutaneous pentylenetetrazole seizure test (sc Met) for 30 min in mice; active at 100 mg/kg. The format is functional, organism-based. On the set-up: dose 100 mg/kg.
The nature of data set [35]: as §2. It is filed as functional.
Data set [36] concerns Rattus norvegicus. As to the kind of experiment: The compound was tested per os dose of 25 mg/kg for 4 hours for maximal electroshock test on rats; MES= 2/4. It is filed as functional.
Data set [37] in a line: The compound was tested for neurologic toxicity (rotarod) test for 30 min in mice; active at 100 mg/kg. The note with it: mouse, in vivo, 0.5 h. The format is organism-based. The arrangement: dose 100 mg/kg.
The test system of data set [38] is Rattus norvegicus. As to the kind of experiment: The compound was tested per os dose of 25 mg/kg for 0.5 hours for maximal electroshock test on rats; MES= 3/4. The format is functional.
For data set [39], the system named is Mus musculus. As to the kind of experiment: The compound was tested to inhibit 50% of induced maximal electroshock seizure in mice on ip administration. It is filed as functional.
In data set [40] the test system is Rattus norvegicus. As to the kind of experiment: The compound was tested per os dose of 25 mg/kg for 2 hours for maximal electroshock test on rats; MES= 2/4. The format is functional.
In data set [41] the test system is Rattus norvegicus. The description is as §1. It is filed as functional.
Data set [42] concerns Rattus norvegicus. As to the kind of experiment: The compound was tested per os dose of 30 mg/kg for 0.25 hours for maximal electroshock test on rats; MES= 0/4. It is filed as functional.
Data set [43] concerns Rattus norvegicus. As to the kind of experiment: The compound was tested for the effective oral dose to inhibit 50% of the anticonvulsant in rats.(Value in parenthesis indicate 95% confidence limits). It is filed as functional.
Data set [44] deals with Rattus norvegicus. As to the kind of experiment: The compound was tested peroral dose of 25 mg/kg for 0.25 hours for rotarod toxicity; 0/4. It is filed as functional. The note with it: route oral.
Data set [45] relates to Rattus norvegicus. As to the kind of experiment: The compound was tested peroral dose of 25 mg/kg for 1 hour for rotarod toxicity; 0/4. It is filed as functional. The note with it: route oral.
Data set [46] relates to Rattus norvegicus. As to the kind of experiment: The compound was tested for the toxic dose on oral administration. It is filed as functional.
Data set [47] concerns Mus musculus. As to the kind of experiment: The compound was tested to inhibit 50% of induced subcutaneous pentylenetetrazole seizure in mice on ip administration. It is filed as functional.

Active and inactive are the calls of the source. The calls are words filed in the database; no cut-off is given here.

As to `CCC(=O)c1ccc2c(c1)sc(=O)n2CCN1CCCCC1`, the TD50 was more than 110 mg/kg in data set [1] and 46.3 mg/kg in data set [20]. Further, the scMet result with Mus musculus [2] and in the data set with Mus musculus [7] was “No activity or no toxicity at 300 mg/kg” each time. For the same compound, the MES result in the data set with Mus musculus [3] and with Mus musculus [24] was “active at 30 mg/kg” throughout. For the same compound, the “No. of animals exhibiting toxicity / Number of animals tested” value with Rattus norvegicus [4], in the data set with Rattus norvegicus [5], in the data set on Rattus norvegicus [12], with Rattus norvegicus [15] and with Rattus norvegicus [21] was 0 each time. The Protected/Tested came out at 0 with Rattus norvegicus [6]; 1 in the data set on Rattus norvegicus [9]; 1 with Rattus norvegicus [18]; 3 with Rattus norvegicus [22]; 3 in the data set with Rattus norvegicus [25]. Moreover, the PI in the data set filed under Rattus norvegicus [8] is listed as 4. The compound further showed a Toxicity in data set [10] of 0.25 h. In addition, the Activity with Mus musculus [11] amounted to 0.25 h. Also, the values for the ED50 with Rattus norvegicus [13], with Mus musculus [14] and in the data set with Mus musculus [23] were 27.2 mg/kg, 8.7 mg/kg and more than 55 mg/kg, respectively. The Rotarod toxicity result in data set [16] and in data set [19] was “active at 300 mg/kg” throughout. Moreover, the Ratio in data set [17] was 10. The compound further registered a Ki at Sigma 2 receptor of 481 nM.
`Oc1nc2ccc(Cc3ccccc3)cc2o1`: the scMet result in the data set with Mus musculus [26] and in the data set on Mus musculus [34] was “active at 100 mg/kg” throughout. In addition, the “No. of animals exhibiting toxicity / Number of animals tested” value in the data set with Rattus norvegicus [27], in the data set on Rattus norvegicus [31], in the data set on Rattus norvegicus [33], with Rattus norvegicus [44] and in the data set with Rattus norvegicus [45] was 0 each time. Also, the Rotarod toxicity result in [28] and in data set [37] was “active at 100 mg/kg” each time. Further, the Protected/Tested stood at 3 in the data set with Rattus norvegicus [29]; 2 with Rattus norvegicus [36]; 3 in the data set with Rattus norvegicus [38]; 2 with Rattus norvegicus [40]; 0 with Rattus norvegicus [42]. Further, the MES entry with Mus musculus [30] and in the data set on Mus musculus [32] was “active at 100 mg/kg” each time. The Toxicity in [10] was 1 h. In the data set with Mus musculus [11], the Activity was found to be 0.5 h. In addition, the PI in [35] came out at 21.7. For the same compound, the TD50 in data set [20] was 164 mg/kg; in the data set on Rattus norvegicus [41] it was more than 500 mg/kg. The values for the ED50 in the data set with Mus musculus [39], in the data set with Rattus norvegicus [43] and in the data set on Mus musculus [23] were 68.3 mg/kg, 23.1 mg/kg and 77.2 mg/kg, respectively.
`O=C1NC(=O)C(c2ccccc2)(c2ccccc2)N1` [PHENYTOIN] displayed a TD50 in the data set with Rattus norvegicus [46] of more than 3000 mg/kg. The same compound returned an ED50 in the data set with Mus musculus [47] of more than 300 mg/kg.
